Assay results: patent US20100003246A1, “Novel heterocyclic compounds and uses therof” (priority 2008, published 2010)
One block for each compound: values may come before it.

Target: T1, b-Raf(V600E) (Homo sapiens, UniProt P15056, V600E)
T1 construct: made in house
Experiment: Raf/Mek Amplified Luminescence Proximity Homogeneous Assay (Alpha Screen), b-Raf(V600E)
Assay type: biochemical
Settings: mutant b-Raf(V600E), read-out: mut-b-RAF (IC50 in uM)
Experimental: Assay buffer: 50 mM Tris, pH 7.5, 15 mM MgCl2, 0.01% BSA, 1 mM DTT Stop buffer: 60 mM EDTA, 0.01% Tween20 Bead buffer: 50 mM Tris, pH 7.5, 0.01% Tween20
b-Raf(V600E), active: Recombinant in-house material biotinylated Mek, kinase dead: Recombinant in-house material Alpha Screen detection kit PerkinElmer, #6760617R Anti phospho-MEK½ Cell signaling #9121 384 well assay plates: White Greiner plates, #781207
b-Raf(V600E) approximately 4 pM c-Raf approximately 4 nM biotinylated Mek, Kinase dead approximately 10 nM
Pre-incubation time with compounds 60 min at room temperature Reaction time 1 or 3 hours at room temperature
Raf and biotinylated Mek, kinase dead, were combined at 2× final concentrations in assay buffer (50 mM Tris, pH 7.5, 15 mM MgCl2, 0.01% BSA and 1 mM DTT) and dispensed 10 μl per well in assay plates (Greiner white 384 well assay plates #781207) containing 0.5 μl of 40× of a raf kinase inhibitor test compound diluted in 100% DMSO. The plate was incubated for 60 min at room temperature.
The Raf kinase activity reaction was started by the addition of 10 μl per well of 2×ATP diluted in assay buffer. After 3 hours (bRaf(V600E)) or 1 hour (c-Raf), the reactions were stopped with the addition of 10 μl of stop reagent (60 mM EDTA). Phosphorylated product was measured using a rabbit anti-p-MEK (Cell Signaling, #9121) antibody and the Alpha Screen IgG (Protein A) detection Kit (PerkinElmer #6760617R), by the addition of 30 μL to the well of a mixture of the antibody (1:2000 dilution) and detection beads (1:2000 dilution of both beads) in bead buffer (50 mM Tris, pH 7.5, 0.01% Tween20). The additions were carried out under dark conditions to protect the detection beads from light. A lid was placed on top of the plate and incubated for 1 hour at room temperature, then the luminescence was read on a PerkinElmer Envision instrument. The concentration of each compound for 50% inhibition (IC50) was calculated by non-linear regression using XL Fit data analysis software.
The Raf/Mek Amplified Luminescence Proximity Homogeneous Assay described was used to generate the luminescence and mutant b-Raf(V600E) IC50 data for selected Raf Kinase Inhibitors shown in Table 1 above.

T1 sequence (P15056 whole entry V600E): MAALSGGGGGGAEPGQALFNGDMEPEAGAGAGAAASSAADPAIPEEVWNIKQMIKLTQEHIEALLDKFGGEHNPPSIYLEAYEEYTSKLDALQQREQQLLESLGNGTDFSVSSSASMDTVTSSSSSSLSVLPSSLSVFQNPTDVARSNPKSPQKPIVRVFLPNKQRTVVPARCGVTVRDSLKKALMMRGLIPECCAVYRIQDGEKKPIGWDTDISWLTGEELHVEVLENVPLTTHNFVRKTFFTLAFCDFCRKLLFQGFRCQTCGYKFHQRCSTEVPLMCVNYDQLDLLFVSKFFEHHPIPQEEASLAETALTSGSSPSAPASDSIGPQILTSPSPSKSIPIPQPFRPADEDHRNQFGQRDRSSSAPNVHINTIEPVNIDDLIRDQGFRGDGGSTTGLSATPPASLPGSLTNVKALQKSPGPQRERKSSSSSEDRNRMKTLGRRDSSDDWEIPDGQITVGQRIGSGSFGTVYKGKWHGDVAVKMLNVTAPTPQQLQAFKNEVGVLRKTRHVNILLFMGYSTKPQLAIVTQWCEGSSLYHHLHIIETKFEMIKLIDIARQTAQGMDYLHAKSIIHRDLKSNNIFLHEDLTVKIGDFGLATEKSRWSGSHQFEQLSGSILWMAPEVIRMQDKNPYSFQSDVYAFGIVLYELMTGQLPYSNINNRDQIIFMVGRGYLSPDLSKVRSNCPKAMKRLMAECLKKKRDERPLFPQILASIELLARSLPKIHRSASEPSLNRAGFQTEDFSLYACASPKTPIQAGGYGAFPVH

Compound: COc1cc(-c2nc(-c3ccccc3)[nH]c2-c2ccncn2)cnc1N [Compound 61, 3-methoxy-5-(2-phenyl-5-(pyrimidin-4-yl)-1H-imidazol-4-yl)pyridin-2-amine]
- IC50: 0.0049 µM

Compound: COc1cc(-c2[nH]c(-c3ccccc3)nc2-c2ccnc(N[C@H]3CCCN(S(=O)(=O)c4ccc(Cl)cc4)C3)n2)cnc1N [Compound 62, (S)-4-(5-(6-amino-5-methoxypyridin-3-yl)-2-phenyl-1H-imidazol-4-yl)-N-(1-(4-chlorophenylsulfonyl)piperidin-3-yl)pyrimidin-2-amine]
- IC50: 0.0003 µM

Compound: COc1cc(-c2nc(-c3ccccc3)[nH]c2-c2ccnc(N(C)C)n2)cnc1N [Compound 63, 4-(4-(6-amino-5-methoxypyridin-3-yl)-2-phenyl-1H-imidazol-5-yl)-N,N-dimethylpyrimidin-2-amine]
- IC50: 0.641 µM

Compound: COc1cc(-c2ccc(S(=O)(=O)N3CCC[C@@H](Nc4nccc(-c5nc(-c6ccccc6)[nH]c5-c5cnc(N)c(OC)c5)n4)C3)cc2)cnc1N [Compound 64, (R)-4-(5-(6-amino-5-methoxypyridin-3-yl)-2-phenyl-1H-imidazol-4-yl)-N-(1-(4-(6-amino-5-methoxypyridin-3-yl)phenylsulfonyl)piperidin-3-yl)pyrimidin-2-amine]
- IC50: 0.0003 µM

Compound: COc1cc(-c2[nH]c(-c3ccccc3)nc2-c2ccnc(N[C@@H]3CCCNC3)n2)cnc1N [Compound 65, (R)-4-(5-(6-amino-5-methoxypyridin-3-yl)-2-phenyl-1H-imidazol-4-yl)-N-(piperidin-3-yl)pyrimidin-2-amine]
- IC50: 0.0599 µM

Compound: COc1cc(-c2[nH]c(-c3ccccc3)nc2-c2ccnc(NCCNC(C)=O)n2)cnc1N [Compound 67, N-(2-(4-(5-(6-amino-5-methoxypyridin-3-yl)-2-phenyl-1H-imidazol-4-yl)pyrimidin-2-ylamino)ethyl)acetamide]
- IC50: 0.0001 µM

Compound: COCC(=O)NCCNc1nccc(-c2nc(-c3ccccc3)[nH]c2-c2cnc(N)c(OC)c2)n1 [Compound 68, N-(2-(4-(5-(6-amino-5-methoxypyridin-3-yl)-2-phenyl-1H-imidazol-4-yl)pyrimidin-2-ylamino)ethyl)-2-methoxyacetamide]
- IC50: 0.0001 µM

Compound: COc1ccc(-c2nc(-c3ccncc3)c(-c3cnc(N)c(OC)c3)[nH]2)cc1 [Compound 69, 3-methoxy-5-(2-(4-methoxyphenyl)-4-(pyridin-4-yl)-1H-imidazol-5-yl)pyridin-2-amine]
- IC50: 0.0003 µM

Compound: COc1cc(-c2[nH]c(-c3ccccc3)nc2-c2ccnc(NCCNS(=O)(=O)c3ccc(Cl)cc3)n2)cnc1N [Compound 70, N-(2-(4-(5-(6-amino-5-methoxypyridin-3-yl)-2-phenyl-1H-imidazol-4-yl)pyrimidin-2-ylamino)ethyl)-4-chlorobenzenesulfonamide]
- IC50: 0.0004 µM

Compound: COc1cc(-c2[nH]c(-c3ccc(O)cc3)nc2-c2ccncc2)cnc1N [Compound 71, 4-(5-(6-amino-5-methoxypyridin-3-yl)-4-(pyridin-4-yl)-1H-imidazol-2-yl)phenol]
- IC50: 0.0003 µM

Compound: COc1cc(-c2nc(-c3ccccc3)[nH]c2-c2ccnc(NC3CC3)n2)cnc1N [Compound 72, 4-(4-(6-amino-5-methoxypyridin-3-yl)-2-phenyl-1H-imidazol-5-yl)-N-cyclopropylpyrimidin-2-amine]
- IC50: 0.0016 µM

Compound: COc1cc(-c2nc(-c3ccccc3)[nH]c2-c2ccnc(N)n2)cnc1N [Compound 73, 4-(4-(6-amino-5-methoxypyridin-3-yl)-2-phenyl-1H-imidazol-5-yl)pyrimidin-2-amine]
- IC50: 0.0011 µM

Compound: COc1cc(-c2nc(-c3ccccc3)[nH]c2-c2ccnc(NC[C@H](C)O)n2)cnc1N [Compound 74, (S)-1-(4-(4-(6-amino-5-methoxypyridin-3-yl)-2-phenyl-1H-imidazol-5-yl)pyrimidin-2-ylamino)propan-2-ol]
- IC50: 0.0006 µM

Compound: COc1cc(-c2nc(-c3ccccc3)[nH]c2-c2ccnc(NC[C@@H](C)O)n2)cnc1N [Compound 75, (R)-1-(4-(4-(6-amino-5-methoxypyridin-3-yl)-2-phenyl-1H-imidazol-5-yl)pyrimidin-2-ylamino)propan-2-ol]
- IC50: 0.0011 µM

Compound: COc1cc(-c2[nH]c(C3CC3)nc2-c2ccncc2)cnc1N [Compound 76, 5-(2-cyclopropyl-4-(pyridin-4-yl)-1H-imidazol-5-yl)-3-methoxypyridin-2-amine]
- IC50: 0.0015 µM

Compound: COc1nc(-c2sc(-c3ccccc3)nc2-c2ccncc2)cnc1N [Compound 77, 3-methoxy-5-(2-phenyl-4-(pyridin-4-yl)thiazol-5-yl)pyrazin-2-amine]
- IC50: 0.089 µM

Compound: COc1cc(-c2nc(-c3cc(F)cc(F)c3)[nH]c2-c2ccncc2)cnc1N [Compound 78, 5-(2-(3,5-difluorophenyl)-5-(pyridin-4-yl)-1H-imidazol-4-yl)-3-methoxypyridin-2-amine]
- IC50: 0.001 µM

Compound: COc1cc(-c2nc(-c3ccc(OC(F)(F)F)cc3)[nH]c2-c2ccncc2)cnc1N [Compound 79, 3-methoxy-5-(5-(pyridin-4-yl)-2-(4-(trifluoromethoxy)phenyl)-1H-imidazol-4-yl)pyridin-2-amine]
- IC50: 0.002 µM

Compound: COc1cc(-c2[nH]c(-c3ccccc3)nc2C2=CCOCC2)cnc1N [Compound 80, 5-(4-(3,6-dihydro-2H-pyran-4-yl)-2-phenyl-1H-imidazol-5-yl)-3-methoxypyridin-2-amine]
- IC50: 0.038 µM

Compound: COc1cc(-c2nc(-c3ccccc3)[nH]c2-c2ccnc(NC(C)=O)c2)cnc1N [Compound 82, N-(4-(4-(6-amino-5-methoxypyridin-3-yl)-2-phenyl-1H-imidazol-5-yl)pyridin-2-yl)acetamide]
- IC50: 0.002 µM

The remaining lines, values ahead:

- IC50: 0.197 µM
Compound: CNc1ncc(-c2nc(-c3ccccc3)[nH]c2-c2ccncc2)cn1 [Compound 83, N-methyl-5-(2-phenyl-5-(pyridin-4-yl)-1H-imidazol-4-yl)pyrimidin-2-amine]

- IC50: 0.229 µM
Compound: FC(F)(F)c1ccc(-c2nc(-c3ccncc3)c(-c3ccncc3)[nH]2)cc1 [Compound 84, 4,4′-(2-(4-(trifluoromethyl)phenyl)-1H-imidazole-4,5-diyl)dipyridine]

- IC50: 0.537 µM
Compound: COc1cc(-c2[nH]c(-c3ccccc3)nc2-c2ccn[nH]2)cnc1N [Compound 86, 3-methoxy-5-(2-phenyl-4-(1H-pyrazol-5-yl)-1H-imidazol-5-yl)pyridin-2-amine]

- IC50: 0.391 µM
Compound: N#Cc1cc(-c2[nH]c(-c3ccccc3)nc2-c2ccncc2)cnc1N [Compound 87, 2-amino-5-(2-phenyl-4-(pyridin-4-yl)-1H-imidazol-5-yl)nicotinonitrile]

- IC50: 0.0001 µM
Compound: COc1cc(-c2[nH]c(-c3ccccc3)nc2-c2ccnc(NCCNS(=O)(=O)C3CC3)n2)cnc1N [Compound 88, N-(2-(4-(5-(6-amino-5-methoxypyridin-3-yl)-2-phenyl-1H-imidazol-4-yl)pyrimidin-2-ylamino)ethyl)cyclopro-panesulfonamide]

- IC50: 0.0137 µM
Compound: COc1cc(-c2oc(-c3ccccc3)nc2-c2ccncc2)cnc1N [Compound 89, 3-methoxy-5-(2-phenyl-4-(pyridin-4-yl)oxazol-5-yl)pyridin-2-amine]

- IC50: 0.113 µM
Compound: COc1nc(-c2oc(-c3ccccc3)nc2-c2ccncc2)cnc1N [Compound 90, 3-methoxy-5-(2-phenyl-4-(pyridin-4-yl)oxazol-5-yl)pyrazin-2-amine]

- IC50: 0.0044 µM
Compound: COc1cc(-c2[nH]c(-c3ccccc3)nc2-c2ccnc(N[C@@H]3CCCN(S(=O)(=O)C4CC4)C3)n2)cnc1N [Compound 91, (R)-4-(5-(6-amino-5-methoxypyridin-3-yl)-2-phenyl-1H-imidazol-4-yl)-N-(1-(cyclopropylsulfonyl)piper-idin-3-yl)pyrimidin-2-amine]

- IC50: 0.0003 µM
Compound: COc1cc(-c2nc(-c3ccccc3)oc2-c2ccncc2)cnc1N [Compound 92, 3-methoxy-5-(2-phenyl-5-(pyridin-4-yl)oxazol-4-yl)pyridin-2-amine]

- IC50: 0.0038 µM
Compound: COc1cc(-c2[nH]c(-c3ccc(F)cc3)nc2-c2ccncc2F)cnc1N [Compound 93, 5-(2-(4-fluorophenyl)-4-(3-fluoropyridin-4-yl)-1H-imidazol-5-yl)-3-methoxypyridin-2-amine]

- IC50: 0.0606 µM
Compound: COc1cc(-c2[nH]c(-c3ccc(F)cc3)nc2-c2ccncc2Cl)cnc1N [Compound 94, 5-(4-(3-chloropyridin-4-yl)-2-(4-fluorophenyl)-1H-imidazol-5-yl)-3-methoxypyridin-2-amine]

- IC50: 0.0025 µM
Compound: COc1cc(-c2[nH]c(-c3ccc(F)cc3)nc2-c2ccnc(NC3CCN(S(=O)(=O)C4CC4)CC3)n2)cnc1N [Compound 95, 4-(5-(6-amino-5-methoxypyridin-3-yl)-2-(4-fluorophenyl)-1H-imidazol-4-yl)-N-(1-(cyclopropylsulfonyl)piper-idin-4-yl)pyrimidin-2-amine]
